Measured values reported in patent US12599672B2, “KRAS proteolysis targeting chimeras” (PAQ Therapeutics Inc., priority 2023, dated 2026).

Key:
[1] = target: T1, KRAS G12V (Homo sapiens, UniProt P01116, G12V); experiment: KRAS G12V HiBit assay; type: cell-based; details: SW620-KRAS (G12V)-HiBit-KI cells, compound treatment for 24 hours, class symbols
T1 construct: SW620-KRAS (G12V)-HiBit-KI cell (Pharmaron); host or cells: SW620-KRAS (G12V)-HiBit-KI cells (HiBiT knock-in at the endogenous KRAS locus)
Method: Day 1. […] Rinsed cultivated cells in T-75 flasks with 5 mL PBS (Solarbio, P1020-500). […] Inactivated trypsin by adding excessive serum containing medium. Harvested the cells from flask into cell culture medium and counted the cell number.
Day 2. Test compounds were dissolved at 0.3 mM in DMSO (Solarbio, D8371) as stock solution. […] Performed 3-fold, 10-points dilution via transferring 15 μL compound into 30 μL DMSO by using TECAN liquid handler (TECAN, Freedom EVO200). […] After compound treatment for 24 hours, the plate was removed from incubators and equilibrated at room temperature for 15 minutes. Prepare the HiBit reagent (Promega, N3040) by mixing 10 mL of Nano-Glo®-HiBiT Lytic Buffer with 200 μL of Nano-Glo®-HiBiT Lytic Substrate and 100 μL of LgBiT Protein. Added 20 μL of HiBit reagent into each well of the cell plate and spun the plates at room temperature at 1,000 RPM for 1 minute.
The degradation activity was calculated using the following formula:
[formula] where HC (high control) is obtained from cells treated with 0.1% DMSO only.

[2] = target: T2, KRAS G12D (Homo sapiens, UniProt P01116, G12D); experiment: KRAS G12D HiBit assay; type: cell-based; details: AsPc-1-KRAS (G12D)-HiBit-KI cell, compound treatment for 24 hours, class symbols; for DC50: absolute DC50
T2 construct: AsPc-1-KRAS (G12D)-HiBit-KI cell (Pharmaron); host or cells: AsPc-1-KRAS (G12D)-HiBit-KI cells (HiBiT knock-in at the endogenous KRAS locus)
How it was run: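 Cells were treated for 24 h with compounds in a 3-fold, 10-point dilution series from a 0.3 mM DMSO stock, then equilibrated 15 min at room temperature. KRAS G12D HiBiT levels were read by luminescence after lytic Nano-Glo HiBiT reagent with LgBiT; inhibition calculated relative to 0.1% DMSO high control.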

T2 sequence (P01116 1-188 isoform P01116-2 G12D): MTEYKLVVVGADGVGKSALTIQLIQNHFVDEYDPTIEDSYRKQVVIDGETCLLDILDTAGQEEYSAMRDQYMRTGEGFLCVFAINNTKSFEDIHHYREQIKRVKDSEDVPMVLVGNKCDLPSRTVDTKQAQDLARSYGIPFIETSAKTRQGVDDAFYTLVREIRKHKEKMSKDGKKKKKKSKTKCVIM
T1 sequence (P01116 1-188 isoform P01116-2 G12V): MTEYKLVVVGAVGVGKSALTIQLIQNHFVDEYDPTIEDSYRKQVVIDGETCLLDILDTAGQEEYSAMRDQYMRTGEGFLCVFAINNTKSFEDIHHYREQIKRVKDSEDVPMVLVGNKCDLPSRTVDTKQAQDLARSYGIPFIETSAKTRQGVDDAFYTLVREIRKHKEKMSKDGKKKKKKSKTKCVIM

Row | SMILES | DC50 [1] [nM] | DC50 [2] [nM] | Dmax [2] [%]
1 | C#Cc1c(F)ccc2cccc(-c3ncc4c(N5CCC[C@@](C)(O)C5)nc(OCC5(CN6CCN(CC7CCN(c8cccc9c8n(C)c(=O)n9C8CCC(=O)NC8=O)CC7)CC6)CC5)nc4c3F)c12 (stereo partly shown) [Compound 78] | > 100 | > 300 | –
2 | CCc1c(F)ccc2cccc(-c3ncc4c(N5CCC[C@@](C)(O)C5)nc(OC[C@@]56CCCN5[C@H](COC(=O)N5CCC(CN7CCC(c8ccc9c(c8)n(C)c(=O)n9C8CCC(=O)NC8=O)CC7)CC5)CC6)nc4c3F)c12 (stereo partly drawn) [Compound 94, [(3S,8S)-8-[[7-(8-ethyl-7-fluoro-1-naphthyl)-8-fluoro-4-[(3R)-3-hydroxy-3-methyl-1-piperidyl]pyrido[4,3-d]pyrimidin-2-yl]oxymethyl]-1,2,3,5,6,7-hexahydropyrrolizin-3-yl]methyl-4-[[4-[1-(2,6-dioxo-3-piperidyl)-3-methyl-2-oxo-benzimidazol-5-yl]-1-piperidyl]methyl]piperidine-1-carboxylate] | > 100 | < 100 | > 50
3 | CCc1c(F)ccc2cccc(-c3ncc4c(N5CCC[C@@](C)(O)C5)nc(OC[C@@]56CCCN5[C@H](COC(=O)NCCOCCOc5ccc7c(c5)n(C)c(=O)n7C5CCC(=O)NC5=O)CC6)nc4c3F)c12 (stereo partly drawn) [Compound 103, ((3S,7aS)-7a-(((7-(8-ethyl-7-fluoronaphthalen-1-yl)-8-fluoro-4-((R)-3-hydroxy-3-methylpiperidin-1-yl)pyrido[4,3-d]pyrimidin-2-yl)oxy)methyl)hexahydro-1H-pyrrolizin-3-yl)methyl (2-(2-((1-(2,6-dioxopiperidin-3-yl)-3-methyl-2-oxo-2,3-dihydro-1H-benzo[d]imidazol-5-yl)oxy)ethoxy)ethyl) carbamate] | > 100 | > 300 | 15 to 50
4 | CCc1c(F)ccc2cccc(-c3ncc4c(N5CCC[C@@](C)(O)C5)nc(OC[C@@]56CCCN5[C@H](COC(=O)NCCOCCOCCOc5ccc7c(c5)n(C)c(=O)n7C5CCC(=O)NC5=O)CC6)nc4c3F)c12 (stereo partly drawn) [Compound 104, ((3S,7aS)-7a-(((7-(8-ethyl-7-fluoronaphthalen-1-yl)-8-fluoro-4-((R)-3-hydroxy-3-methylpiperidin-1-yl)pyrido[4,3-d]pyrimidin-2-yl)oxy)methyl)hexahydro-1H-pyrrolizin-3-yl)methyl (2-(2-(2-((1-(2,6-dioxopiperidin-3-yl)-3-methyl-2-oxo-2,3-dihydro-1H-benzo[d]imidazol-5-yl)oxy)ethoxy)ethoxy)ethyl) carbamate] | > 100 | > 300 | 15 to 50
5 | CCc1c(F)ccc2cccc(-c3ncc4c(N5CCC[C@@](C)(O)C5)nc(OC[C@@]56CCCN5[C@H](COC(=O)NCCOCCOCCOCCOc5ccc7c(c5)n(C)c(=O)n7C5CCC(=O)NC5=O)CC6)nc4c3F)c12 (stereo partly drawn) [Compound 105, ((3S,7aS)-7a-(((7-(8-ethyl-7-fluoronaphthalen-1-yl)-8-fluoro-4-((R)-3-hydroxy-3-methylpiperidin-1-yl)pyrido[4,3-d]pyrimidin-2-yl)oxy)methyl)hexahydro-1H-pyrrolizin-3-yl)methyl (2-(2-(2-(2-((1-(2,6-dioxopiperidin-3-yl)-3-methyl-2-oxo-2,3-dihydro-1H-benzo[d]imidazol-5-yl)oxy)ethoxy)ethoxy)ethoxy)ethyl) carbamate] | > 100 | > 300 | 15 to 50
6 | C#Cc1c(F)ccc2cccc(-c3ncc4c(N5CCC[C@@](C)(O)C5)nc(OC[C@@]56CCCN5[C@H](COC(=O)NCCOc5ccc7c(c5)n(C)c(=O)n7C5CCC(=O)NC5=O)CC6)nc4c3F)c12 (stereo partly drawn) [Compound 106, ((3S,7aS)-7a-(((7-(8-ethynyl-7-fluoronaphthalen-1-yl)-8-fluoro-4-((R)-3-hydroxy-3-methylpiperidin-1-yl)pyrido[4,3-d]pyrimidin-2-yl)oxy)methyl)hexahydro-1H-pyrrolizin-3-yl)methyl (2-((1-(2,6-dioxopiperidin-3-yl)-3-methyl-2-oxo-2,3-dihydro-1H-benzo[d]imidazol-5-yl)oxy)ethyl) carbamate] | > 100 | > 300 | < 15
7 | CCc1c(F)ccc2cccc(-c3ncc4c(N5CCC[C@@](C)(O)C5)nc(OC[C@@]56CCCN5[C@H](COC(=O)NCCOc5ccc7c(c5)n(C)c(=O)n7C5CCC(=O)NC5=O)CC6)nc4c3F)c12 (stereo partly drawn) [Compound 111, ((3S,7aS)-7a-(((7-(8-ethyl-7-fluoronaphthalen-1-yl)-8-fluoro-4-((R)-3-hydroxy-3-methylpiperidin-1-yl)pyrido[4,3-d]pyrimidin-2-yl)oxy)methyl)hexahydro-1H-pyrrolizin-3-yl)methyl (2-((1-(2,6-dioxopiperidin-3-yl)-3-methyl-2-oxo-2,3-dihydro-1H-benzo[d]imidazol-5-yl)oxy)ethyl) carbamate] | > 100 | > 300 | –
8 | C#Cc1c(F)ccc2cccc(-c3ncc4c(N5CCCC(C#N)CC5)nc(OC[C@@]56CCCN5[C@H](COC(=O)NCCOc5ccc7c(c5)n(C)c(=O)n7C5CCC(=O)NC5=O)CC6)nc4c3F)c12 (stereo partly drawn) [Compound 116, ((3S,7aS)-7a-(((4-(4-cyanoazepan-1-yl)-7-(8-ethynyl-7-fluoronaphthalen-1-yl)-8-fluoropyrido[4,3-d]pyrimidin-2-yl)oxy)methyl)hexahydro-1H-pyrrolizin-3-yl)methyl (2-((1-(2,6-dioxopiperidin-3-yl)-3-methyl-2-oxo-2,3-dihydro-1H-benzo[d]imidazol-5-yl)oxy)ethyl) carbamate] | > 100 | > 300 | –
9 | C#Cc1c(F)ccc2cccc(-c3ncc4c(N5CCCC(C#N)CC5)nc(OC[C@@]56CCCN5[C@H](COC(=O)NCCOCCOc5ccc7c(c5)n(C)c(=O)n7C5CCC(=O)NC5=O)CC6)nc4c3F)c12 (stereo partly drawn) [Compound 117, ((3S,7aS)-7a-(((4-(4-Cyanoazepan-1-yl)-7-(8-ethynyl-7-fluoronaphthalen-1-yl)-8-fluoropyrido[4,3-d]pyrimidin-2-yl)oxy)methyl)hexahydro-1H-pyrrolizin-3-yl)methyl (2-(2-((1-(2,6-dioxopiperidin-3-yl)-3-methyl-2-oxo-2,3-dihydro-1H-benzo[d]imidazol-5-yl)oxy)ethoxy)ethyl) carbamate] | > 100 | > 300 | –
10 | C#Cc1c(F)ccc2cc(O)cc(-c3ncc4c(N5CCC[C@@](C)(O)C5)nc(OC[C@@]56CCCN5[C@H](COC(=O)N5CCC(OCCC#Cc7cccc8c7n(C)c(=O)n8C7CCC(=O)NC7=O)CC5)CC6)nc4c3F)c12 (stereo partly drawn) [Compound 127, ((3S,7aS)-7a-(((7-(8-Ethynyl-7-fluoro-3-hydroxynaphthalen-1-yl)-8-fluoro-4-((R)-3-hydroxy-3-methylpiperidin-1-yl)pyrido[4,3-d]pyrimidin-2-yl)oxy)methyl)hexahydro-1H-pyrrolizin-3-yl)methyl 4-((4-(1-(2,6-dioxopiperidin-3-yl)-3-methyl-2-oxo-2,3-dihydro-1H-benzo[d]imidazol-4-yl)but-3-yn-1-yl)oxy)piperidine-1-carboxylate] | 10 to 100 | < 100 | –
11 | C#Cc1c(F)ccc2cccc(-c3ncc4c(N5CCC[C@@](C)(O)C5)nc(OC[C@@]56CCCN5[C@H](COC(=O)N5CCC(N7CCC(c8ccc9c(c8)n(C)c(=O)n9C8CCC(=O)NC8=O)CC7)CC5)CC6)nc4c3F)c12 (stereo partly drawn) [Compound 128, ((3S,7aS)-7a-(((7-(8-Ethynyl-7-fluoronaphthalen-1-yl)-8-fluoro-4-((R)-3-hydroxy-3-methylpiperidin-1-yl)pyrido[4,3-d]pyrimidin-2-yl)oxy)methyl)hexahydro-1H-pyrrolizin-3-yl)methyl 4-(1-(2,6-dioxopiperidin-3-yl)-3-methyl-2-oxo-2,3-dihydro-1H-benzo[d]imidazol-5-yl)-[1,4′-bipiperidine]-1′-carboxylate] | > 100 | > 300 | –
12 | C#Cc1c(F)ccc2cc(O)cc(-c3ncc4c(N5CCC[C@@](C)(O)C5)nc(OC[C@@]56CCCN5[C@H](COC(=O)N5CCC(N7CCC(c8ccc9c(c8)n(C)c(=O)n9C8CCC(=O)NC8=O)CC7)CC5)CC6)nc4c3F)c12 (stereo partly shown) [Compound 129] | > 100 | > 300 | –
13 | C#Cc1c(F)ccc2cccc(-c3ncc4c(N5CCC[C@@](C)(O)C5)nc(OC[C@@]56CCCN5[C@H](COC(=O)N5CC(OCC7CCN(c8ccc9c(c8)n(C)c(=O)n9C8CCC(=O)NC8=O)CC7)C5)CC6)nc4c3F)c12 (stereo partly drawn) [Compound 130, ((3S,7aS)-7a-(((7-(8-Ethynyl-7-fluoronaphthalen-1-yl)-8-fluoro-4-((R)-3-hydroxy-3-methylpiperidin-1-yl)pyrido[4,3-d]pyrimidin-2-yl)oxy)methyl)hexahydro-1H-pyrrolizin-3-yl)methyl 3-((1-(1-(2,6-dioxopiperidin-3-yl)-3-methyl-2-oxo-2,3-dihydro-1H-benzo[d]imidazol-5-yl)piperidin-4-yl)methoxy) azetidine-1-carboxylate] | > 100 | > 300 | –
